Consider nine compounds from publication PMC9501768, “A New Class of Tunable Acid-Sensitive Linkers for Native Drug Release Based on the Trityl Protecting Group” (Bioconjugate Chemistry, 2022).

Structures are written as SMILES. Where two headings read alike, the source gives them in different places.

Data set [1] can be described thus: Release of native API from API-linker construct in buffer (UHPLC, first-order fit). The data set is classed as physicochemical. Here is the method:
Release of DMXAA-amine 1 from the linker construct 12 (method described in S3.1) was measured at 37 °C for 24 h. At set time points, the concentration of the native compound 1 in a buffer of different pH values was measured by ultrahigh performance liquid chromatography (UHPLC) as shown in Figure 3.
The half-life values (t1/2) were determined from the slope of the first-order kinetic curves fitted through the release curve and are shown in Table 2. Details are provided in Section S3 of the Supporting Information. […]
S3: In vitro release protocol and stability control
S3.1 Release of API from API-linker construct
API-linker constructs 12-16, 17 and 18 were dissolved in DMSO at 1 mg/mL. This was then further diluted 10x in 20 mM sodium phosphate buffer 130 mM NaCl pH 7.4, 100 mM sodium citrate buffer 50 mM NaCl pH 6.5, 20 mM ammonium acetate 130 mM NaCl pH 5.0 or if needed 100 mM sodium phosphate buffer 50 mM NaCl pH 3.0. These dilutions were incubated at 37°C in the sample tray and at different timepoints, the concentration of free API 1, 2, or 3 was measured on a H-class UPLC system (Waters) (Figure S7 and S8)
Figure S 7: Chromatogram of 15 at 37°C, pH 7.4 t=0 hours
(1 picture or pasted object on this page, not shown here)
Figure S 8: Chromatogram of 15 at 37°C, pH 7.4, t= 12 hours […]
injection volume, 30 °C column temperature. Run with the following gradient: […]
Time (min) Flow rate %A %B
With A: 25 mM Ammonium acetate buffer pH 5.0 and B: acetonitrile.
2: Acquity HSS T3 1.7 μm, 50 x 2.1 mm column for 18 at 275 nm, 5.0 µL injection volume, 30 °C column temperature. Run with the following gradient: […]
Time (min) Flow rate % A % B
With A: phosphate buffer pH 2.5 and B: methanol.
3: Acquity BEH C18 1.7 μm, 50 x 2.1 mm for 18 at 233 nm, 2.0 µL injection volume, 30 °C column […]
With A: 10 mM ammonium bicarbonate pH 9.6 and B: acetonitrile.
Measured concentrations were plotted using GraphPad Prism 9 and fitted based on first order kinetics.
All fitted lines complied with an R2>0.95. This gave the half-life and plateau when this was not reached within the measured timeframe. […]
Size of all particles were confirmed to be between 55 and 70 nm.

Test in data set [2]: as above
The data set is classed as physicochemical. To be noted: pH 5.0, 37 °C.

On the set-up of data set [3]: method as in PMID 14644. To be noted: doxorubicin amine nitrogen bound to trityl; cited from earlier work.
Setting [4] is: ammonium acetate buffer, pH 5, API-trityl linker construct in buffer, pH 5.0, 37 °C, read-out: t1/2 pH 5.0 (converted).
Setting [5] is: sodium citrate buffer, pH 6.5, API-trityl linker construct in buffer, pH 6.5, 37 °C, read-out: t1/2 pH 6.5 (converted).
The mark [6] stands for this setting: sodium phosphate buffer, pH 7.4, API-trityl linker construct in buffer, pH 7.4, 37 °C, values for 17 are estimations (doxorubicin precipitation), read-out: t1/2 pH 7.4 (converted).

For `COc1cccc2c1C(=O)c1c(O)c3c(c(O)c1C2=O)C[C@@](O)(C(=O)CO)C[C@@H]3O[C@H]1C[C@H](N)[C@H](O)[C@H](C)O1` [compound 2, doxorubicin, reference compound], in data set [1] (setting [4]), the half-life at 0.1 mg/mL is under 1 h.
With `Nc1ccn([C@@H]2O[C@H](CO)[C@@H](O)C2(F)F)c(=O)n1` [compound 3, gemcitabine], the “release at pH 5.0 within 72 h” value in data set [2] was “no detectable release”.
For `C=C(C)C(=O)NCCCNC(=O)c1cccc(C(Nc2ccc(CC(=O)[O-])c3oc4c(C)c(C)ccc4c(=O)c23)(c2ccc(OC)cc2)c2ccc(OC)cc2)c1.[Li+]` [compound 12], the half-life at 0.1 mg/mL in data set [1] (setting [4]) is 1.8 ± 0.1 h; in data set [1] (setting [5]), 83 ± 27 h. Moreover, the “release of native DMXAA-amine 1 at pH 5” value in data set [1] (construct in buffer, pH 5, 37 °C, within 12 h) is listed as 100%. Further, the “release of native DMXAA-amine 1 at pH 6.5” value in data set [1] (construct in buffer, pH 6.5, 37 °C, over 24 h) is about 20%. In addition, the “release of native DMXAA-amine 1 at pH 7.4” value in data set [1] (construct in buffer, pH 7.4, 37 °C, over 24 h) is “Hardly any release”.
On to `C=C(C)C(=O)NCCCNC(=O)c1ccc(C(Nc2ccc(CC(=O)[O-])c3oc4c(C)c(C)ccc4c(=O)c23)(c2ccc(OC)c(OC)c2)c2ccc(OC)c(OC)c2)cc1.[Li+]` [compound 13], for which the half-life at 0.1 mg/mL in data set [1] (setting [4]) is under 1 h; in data set [1] (setting [5]), 1.2 ± 0.1 h; in data set [1] (setting [6]), 4.2 ± 0.2 h.
The like results for `C=C(C)C(=O)NCCCNC(=O)c1ccc(C(Nc2ccc(CC(=O)[O-])c3oc4c(C)c(C)ccc4c(=O)c23)(c2ccc(OC)cc2OC)c2ccc(OC)cc2OC)cc1.[Li+]` [compound 14] were, in that order, under 1 h, under 1 h and under 1 h.
Consider `C=C(C)C(=O)NCCCNC(=O)c1ccc(C(Nc2ccc(CC(=O)[O-])c3oc4c(C)c(C)ccc4c(=O)c23)(c2ccc(OC)c(C)c2)c2ccc(OC)c(C)c2)cc1.[Li+]` [compound 15], for which the half-life at 0.1 mg/mL in data set [1] (setting [4]) is under 1 h; in data set [1] (setting [5]) it was 1.9 ± 0.2 h.
As to `C=C(C)C(=O)NCCCNC(=O)c1cccc(C(Nc2ccc(CC(=O)[O-])c3oc4c(C)c(C)ccc4c(=O)c23)(c2ccc(OC)c(OC)c2)c2ccc(OC)c(OC)c2)c1.[Li+]` [compound 16], the half-life at 0.1 mg/mL is under 1 h in data set [1] (setting [4]), under 1 h in data set [1] (setting [5]) and 2.3 ± 0.1 h in data set [1] (setting [6]).
On to `C=C(C)C(=O)NCCCNC(=O)c1cccc(C(N[C@H]2C[C@H](O[C@H]3C[C@](O)(C(=O)CO)Cc4c(O)c5c(c(O)c43)C(=O)c3c(OC)cccc3C5=O)O[C@@H](C)[C@H]2O)(c2ccc(OC)cc2)c2ccc(OC)cc2)c1` [compound 17], for which the half-life at 0.1 mg/mL in data set [1] (API-trityl linker construct in buffer, pH 5.0, 37 °C, read-out: t1/2 pH 5.0 (converted)) is under 1 h; in data set [1] (API-trityl linker construct in buffer, pH 7.4, 37 °C, values for 17 are estimations (doxorubicin precipitation), read-out: t1/2 pH 7.4 (converted)) it was about 6 h. The “pKa of the most basic nitrogen” value in data set [3] is listed as 8.4.
With `C=C(C)C(=O)NCCCNC(=O)c1cccc(C(Nc2ccn([C@@H]3O[C@H](CO)[C@@H](O)C3(F)F)c(=O)n2)(c2ccc(OC)cc2)c2ccc(OC)cc2)c1` [compound 18], the “t1/2 pH 3.0 (h)” value in data set [1] (API-trityl linker construct in buffer, pH 3.0, 37 °C, listed as gem–trityl 18) was 23.2 ± 0.5 h. Also, the half-life at 0.1 mg/mL was over 72 h in data set [1] (setting [4]); 23.3 h in data set [1] (sodium phosphate buffer, pH 3, API-trityl linker construct in buffer, pH 3.0, 37 °C, read-out: t1/2 pH 3.0 (converted)); over 72 h in data set [1] (setting [6]).
